Experimental data: ChEMBL document CHEMBL1201862, “PubChem BioAssay data set” (2004)
The source made the active and inactive calls.

What was measured:
[1] = target: Photoreceptor-specific nuclear receptor (Homo sapiens, UniProt Q9Y5X4); assay type: functional, cell-based;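 further: CHO-S cells with Gal4-NCOR and VP16-NR2E3 two-hybrid luciferase reporter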
[2] = AlphaScreen signal interference compounds, dose response, artefact control for ARNT-TACC3 interaction inhibitor project, biochemical, luminescence, cherry-pick (AID 651705); assay type: functional;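 further: AlphaScreen bead proximity signal that flags compounds interfering with the detection technology; potency reflects signal decrease which marks the compound as an assay artifact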
Interleukin-8 [3] = target: T1, Interleukin-8 (Homo sapiens, UniProt P10145); test: Dose Response confirmation of uHTS small molecule hits for cystic fibrosis induced NFkb Inhibitors in a TNFa-induced IL8 counterscreen.; assay type: functional; settings: read-out: IC50_Mean
T1 sequence (P10145 whole entry): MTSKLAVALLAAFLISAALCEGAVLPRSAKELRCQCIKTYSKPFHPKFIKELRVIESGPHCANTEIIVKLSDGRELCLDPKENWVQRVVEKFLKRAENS

Interleukin-8 [4] = target: T1, Interleukin-8; test: Dose Response confirmation of uHTS small molecule hits for cystic fibrosis induced NFkb Inhibitors in a PAF-induced IL8 counterscreen.; assay type: functional; settings: read-out: IC50_Mean
[5] = target: T2, Probable nicotinate-nucleotide adenylyltransferase (Staphylococcus aureus (strain N315), UniProt P65502); assay type: functional, Staphylococcus aureus subsp. aureus N315;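 on IC50 Mean: confirmatory dose-response retesting of NadD inhibitor hits first found in an ultra-high-throughput screen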
T2 sequence (P65502 whole entry): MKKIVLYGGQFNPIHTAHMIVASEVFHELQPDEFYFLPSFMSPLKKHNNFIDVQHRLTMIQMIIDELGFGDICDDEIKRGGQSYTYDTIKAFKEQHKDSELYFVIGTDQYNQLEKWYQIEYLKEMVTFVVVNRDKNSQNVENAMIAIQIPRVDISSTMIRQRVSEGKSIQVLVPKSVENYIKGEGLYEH

[6] = target: T2, Probable nicotinate-nucleotide adenylyltransferase; assay type: functional, Staphylococcus aureus subsp. aureus N315; settings: read-out: IC50_Mean
[7] = target: Potassium voltage-gated channel subfamily KQT member 2 (Rattus norvegicus, UniProt O88943); test: KCNQ2 potassium channel inhibitors, dose response, cell-based, automated electrophysiology, set II, rat KCNQ2 (AID 588637); assay type: functional
Sequence of Potassium voltage-gated channel subfamily KQT member 2 (O88943 whole entry): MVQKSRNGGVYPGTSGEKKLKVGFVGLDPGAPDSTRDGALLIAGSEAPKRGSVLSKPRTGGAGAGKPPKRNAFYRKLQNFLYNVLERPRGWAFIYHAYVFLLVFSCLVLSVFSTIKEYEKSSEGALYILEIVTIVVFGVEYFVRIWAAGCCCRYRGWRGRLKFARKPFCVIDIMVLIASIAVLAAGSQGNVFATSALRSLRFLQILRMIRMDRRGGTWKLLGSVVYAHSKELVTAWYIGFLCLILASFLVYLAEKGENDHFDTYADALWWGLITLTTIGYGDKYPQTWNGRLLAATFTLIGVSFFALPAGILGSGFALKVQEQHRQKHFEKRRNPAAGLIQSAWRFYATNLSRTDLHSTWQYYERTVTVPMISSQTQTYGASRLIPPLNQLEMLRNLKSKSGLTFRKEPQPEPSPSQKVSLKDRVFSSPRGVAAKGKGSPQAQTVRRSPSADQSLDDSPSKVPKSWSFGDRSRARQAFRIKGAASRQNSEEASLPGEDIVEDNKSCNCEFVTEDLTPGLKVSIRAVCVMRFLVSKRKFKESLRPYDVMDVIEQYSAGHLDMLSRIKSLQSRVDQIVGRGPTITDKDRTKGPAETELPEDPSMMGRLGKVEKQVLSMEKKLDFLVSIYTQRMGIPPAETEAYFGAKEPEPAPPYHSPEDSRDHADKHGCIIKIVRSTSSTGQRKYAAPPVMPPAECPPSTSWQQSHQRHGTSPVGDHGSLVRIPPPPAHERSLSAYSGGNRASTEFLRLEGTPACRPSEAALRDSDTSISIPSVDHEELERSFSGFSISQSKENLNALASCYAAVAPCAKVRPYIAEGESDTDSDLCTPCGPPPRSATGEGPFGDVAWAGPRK

[8] = target: Adenosylmethionine-8-amino-7-oxononanoate aminotransferase (Mycobacterium tuberculosis, UniProt P9WQ81); test: Mycobacterium tuberculosis BioA enzyme inhibitor Measured in Biochemical System Using Plate Reader - 2163-02_Inhibitor_Dose_CherryPick_Activity.; assay type: functional, Mycobacterium tuberculosis UT205
Sequence of Adenosylmethionine-8-amino-7-oxononanoate aminotransferase (P9WQ81 whole entry): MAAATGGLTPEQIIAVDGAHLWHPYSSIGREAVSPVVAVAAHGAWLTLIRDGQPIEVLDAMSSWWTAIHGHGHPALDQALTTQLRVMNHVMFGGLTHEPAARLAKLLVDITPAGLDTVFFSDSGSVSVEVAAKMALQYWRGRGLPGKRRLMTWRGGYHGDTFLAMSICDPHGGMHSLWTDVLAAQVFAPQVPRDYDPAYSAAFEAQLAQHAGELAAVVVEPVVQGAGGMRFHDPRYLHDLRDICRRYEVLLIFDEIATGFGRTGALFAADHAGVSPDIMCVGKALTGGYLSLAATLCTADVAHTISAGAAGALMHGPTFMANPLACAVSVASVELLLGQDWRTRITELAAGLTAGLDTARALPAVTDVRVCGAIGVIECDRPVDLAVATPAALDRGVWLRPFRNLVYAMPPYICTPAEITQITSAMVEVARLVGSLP

Hexokinase = Hexokinase (Trypanosoma brucei, UniProt Q38C41); test: Confirmation assay for inhibitors of Trypanosoma brucei hexokinase 1-Analogue-first series. [Related pubchem assays (depositor defined):AID1430, AID1632, AID2516, AID2560, AID2579, AID2600, AID449725, AID492951]; assay type: functional
[9] = target: Glucose-6-phosphate 1-dehydrogenase (Homo sapiens, UniProt P11413); test: human G6PD enzyme inhibitors, dose response, selectivity assay for P. falciparum G6PD inhibitor project, biochemical, fluorescence (AID 504792); assay type: functional
Sequence of Glucose-6-phosphate 1-dehydrogenase (P11413 whole entry, the tested form may be a part): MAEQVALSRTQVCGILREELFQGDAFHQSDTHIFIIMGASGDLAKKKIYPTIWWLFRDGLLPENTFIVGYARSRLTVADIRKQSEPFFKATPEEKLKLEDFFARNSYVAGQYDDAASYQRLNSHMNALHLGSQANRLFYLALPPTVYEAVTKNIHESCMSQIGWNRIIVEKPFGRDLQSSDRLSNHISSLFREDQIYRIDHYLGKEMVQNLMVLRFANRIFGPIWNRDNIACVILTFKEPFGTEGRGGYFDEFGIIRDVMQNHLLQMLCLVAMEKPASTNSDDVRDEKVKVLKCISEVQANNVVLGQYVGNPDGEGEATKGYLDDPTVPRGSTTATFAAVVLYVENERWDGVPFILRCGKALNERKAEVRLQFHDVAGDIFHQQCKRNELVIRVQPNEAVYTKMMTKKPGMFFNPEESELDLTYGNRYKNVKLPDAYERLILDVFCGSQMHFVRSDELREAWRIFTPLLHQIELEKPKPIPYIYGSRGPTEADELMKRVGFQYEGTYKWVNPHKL

CHO = test: cytotoxicity in TLR9-MyD88 CHO cells, dose response, cytotoxicity control for TLR9-MyD88 binding inhibitor project, cell-based, luminescence (AID 588339); assay type: functional, hamster; settings: Cricetulus griseus;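 further: CHO cells stably coexpressing TLR9 and MyD88 fusions from primary screen; compound exposure lasted 48 hours before viability readout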
Beta Lactamase = Beta Lactamase (Pseudomonas aeruginosa, UniProt Q932Y6); test: beta-lactamase reporter inhibitor potency, dose response, artefact control for TLR9-MyD88 binding inhibitor project, BLA reporter cells, FRET fluorescence (AID 588341); assay type: cell-based;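 further: cell based assay in CHO-K1 cells stably expressing beta-lactamase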
Sequence of Beta Lactamase (Q932Y6 whole entry): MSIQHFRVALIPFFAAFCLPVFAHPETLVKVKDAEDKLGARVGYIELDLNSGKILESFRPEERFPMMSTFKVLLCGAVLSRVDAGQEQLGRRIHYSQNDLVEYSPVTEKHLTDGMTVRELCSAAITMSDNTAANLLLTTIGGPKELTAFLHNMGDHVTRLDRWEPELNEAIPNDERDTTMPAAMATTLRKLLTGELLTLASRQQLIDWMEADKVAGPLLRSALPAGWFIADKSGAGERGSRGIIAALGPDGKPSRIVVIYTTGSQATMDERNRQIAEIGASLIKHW

[10] = target: Mitochondrial peptide methionine sulfoxide reductase (Bos taurus, UniProt P54149); test: Absorbance-based biochemical high throughput dose response assay for activators of Methionine sulfoxide reductase A (MsrA).; assay type: functional
Sequence of Mitochondrial peptide methionine sulfoxide reductase (P54149 whole entry): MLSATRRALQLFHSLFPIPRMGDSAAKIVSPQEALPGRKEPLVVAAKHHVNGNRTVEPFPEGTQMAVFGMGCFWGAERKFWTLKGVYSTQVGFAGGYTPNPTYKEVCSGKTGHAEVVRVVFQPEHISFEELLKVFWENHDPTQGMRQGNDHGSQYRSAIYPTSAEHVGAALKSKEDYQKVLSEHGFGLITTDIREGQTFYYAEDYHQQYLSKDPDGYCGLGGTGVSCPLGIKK

CHO-K1 = test: (§1) Counterscreen for antagonists of the orexin 1 receptor (OX1R; HCRTR1): Homogeneous time resolved fluorescence (HTRF)-based cell-based dose response assay to identify antagonists of the parental CHO-K1 cell line. [Related pubchem assays (depositor defined):AID434989, AID435008, AID463079, AID485270, AID492963, AID492964, AID492965, AID493232, AID504699, AID504701]; assay type: functional; settings: Cricetulus griseus
[11] = as §1, with “Fluorescence-based” for “Homogeneous time resolved fluorescence (HTRF)-based”, “cell-based high throughput” for “cell-based”, “CHO” for “CHO-K1”; assay type: functional
[12] = target: T3, Orexin/Hypocretin receptor type 1 (Homo sapiens, UniProt O43613); test: Homogeneous Time Resolved Fluorescence (HTRF)-based cell-based high throughput dose response assay for antagonists of the orexin 1 receptor (OX1R; HCRTR1). [Related pubchem assays (depositor defined):AID434989, AID435008, AID463079, AID485270, AID492963, AID492964, AID492965, AID493232, AID504717, AID504718]; assay type: functional
T3 sequence (O43613 whole entry): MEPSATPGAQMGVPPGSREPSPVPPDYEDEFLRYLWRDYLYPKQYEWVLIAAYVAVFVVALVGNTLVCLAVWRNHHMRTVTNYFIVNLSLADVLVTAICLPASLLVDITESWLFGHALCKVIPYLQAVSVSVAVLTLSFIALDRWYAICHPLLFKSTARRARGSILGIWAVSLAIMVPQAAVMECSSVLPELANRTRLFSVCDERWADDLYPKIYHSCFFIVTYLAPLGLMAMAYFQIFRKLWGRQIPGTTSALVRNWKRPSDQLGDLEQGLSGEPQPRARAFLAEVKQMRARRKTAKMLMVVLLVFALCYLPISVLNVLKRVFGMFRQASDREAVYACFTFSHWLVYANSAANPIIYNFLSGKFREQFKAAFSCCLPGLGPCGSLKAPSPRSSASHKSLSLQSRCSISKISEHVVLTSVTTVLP

[13] = target: T3, Orexin/Hypocretin receptor type 1; test: Fluorescence-based cell-based high throughput dose response assay for antagonists of the orexin 1 receptor (OX1R; HCRTR1). [Related pubchem assays (depositor defined):AID434989, AID435008, AID463079, AID485270, AID492963, AID492964, AID492965, AID493232, AID504717, AID504718]; assay type: functional
Orexin receptor type 2 [14] = target: T4, Orexin receptor type 2 (Homo sapiens, UniProt O43614); test: Counterscreen assay for antagonists of the orexin 1 receptor (OX1R; HCRTR1): Fluorescence-based cell-based dose response assay for antagonists of the orexin 2 receptor (OX2R; HCRTR2), run by assay provider.; assay type: functional
T4 sequence (O43614 whole entry): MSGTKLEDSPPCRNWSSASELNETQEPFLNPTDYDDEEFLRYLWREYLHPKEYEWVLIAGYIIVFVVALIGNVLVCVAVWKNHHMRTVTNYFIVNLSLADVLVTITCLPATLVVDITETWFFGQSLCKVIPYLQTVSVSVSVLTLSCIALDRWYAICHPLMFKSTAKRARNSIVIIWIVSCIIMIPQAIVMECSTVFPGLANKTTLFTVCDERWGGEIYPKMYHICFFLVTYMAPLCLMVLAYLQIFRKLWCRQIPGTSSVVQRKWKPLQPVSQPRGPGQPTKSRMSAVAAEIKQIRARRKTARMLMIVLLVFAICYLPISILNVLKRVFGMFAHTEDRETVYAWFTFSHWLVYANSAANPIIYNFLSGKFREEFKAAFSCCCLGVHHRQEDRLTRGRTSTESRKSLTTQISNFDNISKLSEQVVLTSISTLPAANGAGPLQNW

Orexin receptor type 2 [15] = target: T4, Orexin receptor type 2; test: Counterscreen assay for antagonists of the orexin 1 receptor (OX1R; HCRTR1): Homogeneous Time Resolved Fluorescence (HTRF)-based cell-based dose response assay for antagonists of the orexin 2 receptor (OX2R; HCRTR2), run by assay provider.; assay type: functional
[16] = Shn3 3'UTR reporter inhibitors, dose response, cell-based, Clone20 osteoblasts, firefly luciferase, cherry-picked (AID 624132); assay type: functional;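 further: firefly luciferase luminescence from reporter carrying the Shn3 3'UTR in osteoblasts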
[17] = HepG2 cell cytotoxicity, dose response, cytotoxicity control for Shn3 inhibitor project, CellTiter-Glo, cherry-picked (AID 624134); assay type: functional, cell-based
[18] = control 3'UTR Renilla luciferase suppression, dose response, counter-screen for Shn3 inhibitor project, cell-based, Clone20-Shn3RL, cherry-picked (AID 624133); assay type: functional
Protein Wnt-3a = Protein Wnt-3a (Mus musculus, UniProt P27467); test: Wnt3a-driven reporter signaling inhibition, dose response, selectivity assay for Gli-SUFU antagonist project, Wnt-LIGHT cells, luminescence (AID 651570); assay type: functional; settings: read-out: IC50_Mean;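 further: Wnt-LIGHT reporter cells stimulated with conditioned medium from Wnt3a-producing cells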
Melanocortin receptor 4 = Melanocortin receptor 4 (Homo sapiens, UniProt P32245); assay type: functional, cell-based;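 further: Cell-based assay with luminescence read-out, confirmatory dose-response testing for agonist activity of biased ligands at MC4R; human U2OS cells with tagged receptor and beta-arrestin; potency of agonists that increase receptor coupling to beta-arrestin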
[19] = target: Serine/threonine-protein kinase pim-1 (Homo sapiens, UniProt P11309); assay type: functional
[20] = target: Casein kinase I isoform gamma-1 (Homo sapiens, UniProt Q9HCP0); assay type: functional;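 further: measured as the CSNK1G1 member of a kinome profiling panel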
Sequence of Casein kinase I isoform gamma-1 (Q9HCP0 whole entry, canonical isoform): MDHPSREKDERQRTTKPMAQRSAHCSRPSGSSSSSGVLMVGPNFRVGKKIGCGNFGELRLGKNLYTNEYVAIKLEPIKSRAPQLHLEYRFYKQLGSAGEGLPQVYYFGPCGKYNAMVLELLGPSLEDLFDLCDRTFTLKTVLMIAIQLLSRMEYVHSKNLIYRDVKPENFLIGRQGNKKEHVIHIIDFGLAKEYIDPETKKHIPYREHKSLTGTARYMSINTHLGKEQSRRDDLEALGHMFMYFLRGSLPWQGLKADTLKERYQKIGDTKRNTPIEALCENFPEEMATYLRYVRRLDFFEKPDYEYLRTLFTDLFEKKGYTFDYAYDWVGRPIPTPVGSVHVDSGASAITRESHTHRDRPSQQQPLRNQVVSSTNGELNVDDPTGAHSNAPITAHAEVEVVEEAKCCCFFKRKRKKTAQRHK

[21] = target: Dual specificity protein kinase CLK4 (Homo sapiens, UniProt Q9HAZ1); assay type: functional
Sequence of Dual specificity protein kinase CLK4 (Q9HAZ1 whole entry): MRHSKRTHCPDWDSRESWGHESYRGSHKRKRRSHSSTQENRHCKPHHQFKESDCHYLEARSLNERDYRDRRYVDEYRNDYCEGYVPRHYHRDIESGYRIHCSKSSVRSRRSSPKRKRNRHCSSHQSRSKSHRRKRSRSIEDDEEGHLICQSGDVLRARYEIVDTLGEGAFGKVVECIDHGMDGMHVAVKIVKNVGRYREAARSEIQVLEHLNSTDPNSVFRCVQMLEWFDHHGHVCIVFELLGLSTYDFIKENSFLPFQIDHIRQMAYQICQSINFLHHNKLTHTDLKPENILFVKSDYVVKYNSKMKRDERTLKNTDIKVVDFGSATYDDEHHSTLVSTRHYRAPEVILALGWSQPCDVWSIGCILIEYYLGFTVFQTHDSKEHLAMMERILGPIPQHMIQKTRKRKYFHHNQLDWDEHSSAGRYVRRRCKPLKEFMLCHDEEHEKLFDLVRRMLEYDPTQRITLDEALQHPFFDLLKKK

[22] = target: Rho-associated protein kinase 1 (Homo sapiens, UniProt Q13464); assay type: functional;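 further: measured within a broad kinome-wide panel profiling many kinases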
[23] = target: Cell division cycle 7-related protein kinase (Homo sapiens, UniProt O00311); assay type: functional;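 further: value obtained from a kinome-wide kinase panel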
Sequence of Cell division cycle 7-related protein kinase (O00311 whole entry): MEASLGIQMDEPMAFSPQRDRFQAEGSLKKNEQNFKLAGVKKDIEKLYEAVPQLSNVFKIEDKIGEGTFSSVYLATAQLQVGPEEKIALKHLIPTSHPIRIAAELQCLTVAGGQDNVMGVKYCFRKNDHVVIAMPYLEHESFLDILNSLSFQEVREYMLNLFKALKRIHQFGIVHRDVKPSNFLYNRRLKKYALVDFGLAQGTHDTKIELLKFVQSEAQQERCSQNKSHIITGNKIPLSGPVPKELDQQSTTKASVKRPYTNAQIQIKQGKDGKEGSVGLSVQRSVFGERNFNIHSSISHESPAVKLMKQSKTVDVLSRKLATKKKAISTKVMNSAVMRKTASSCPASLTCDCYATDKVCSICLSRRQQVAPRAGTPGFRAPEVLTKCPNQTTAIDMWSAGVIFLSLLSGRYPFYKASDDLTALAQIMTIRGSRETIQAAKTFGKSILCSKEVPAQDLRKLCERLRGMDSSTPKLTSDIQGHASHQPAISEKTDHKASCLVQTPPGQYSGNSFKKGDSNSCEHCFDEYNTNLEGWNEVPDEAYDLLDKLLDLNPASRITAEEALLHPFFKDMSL

[24] = target: Cyclin-dependent kinase 7 (Homo sapiens, UniProt P50613); assay type: functional;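 further: value comes from a kinome-wide kinase profiling panel in which CDK7 is one member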
[25] = target: Cyclin-dependent kinase 9 (Homo sapiens, UniProt P50750); assay type: functional;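 further: value from the CDK9 entry of a kinome-spanning kinase panel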
Sequence of Cyclin-dependent kinase 9 (P50750 whole entry): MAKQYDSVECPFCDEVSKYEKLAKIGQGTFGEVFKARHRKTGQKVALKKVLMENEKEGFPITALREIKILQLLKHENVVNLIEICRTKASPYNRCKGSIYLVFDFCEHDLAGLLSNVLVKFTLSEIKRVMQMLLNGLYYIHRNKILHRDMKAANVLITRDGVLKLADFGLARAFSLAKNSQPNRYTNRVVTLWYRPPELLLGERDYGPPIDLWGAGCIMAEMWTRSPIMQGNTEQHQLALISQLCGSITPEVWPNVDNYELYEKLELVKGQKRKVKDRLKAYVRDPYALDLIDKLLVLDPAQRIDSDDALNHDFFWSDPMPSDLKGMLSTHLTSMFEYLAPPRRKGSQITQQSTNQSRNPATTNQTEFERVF

[26] = target: Ras and Rab interactor 1/Tyrosine-protein kinase ABL1 (Homo sapiens, UniProt P00519+Q13671); assay type: functional;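 further: biochemical TR-FRET dose-response test measuring inhibition of binding between Rin1 and Abl proteins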
[27] = target: T5, Aryl hydrocarbon receptor (Homo sapiens, UniProt P35869); settings: Potency;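 further: confirmatory quantitative high-throughput screen measuring activation of the AhR signaling pathway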
T5 sequence (P35869 whole entry): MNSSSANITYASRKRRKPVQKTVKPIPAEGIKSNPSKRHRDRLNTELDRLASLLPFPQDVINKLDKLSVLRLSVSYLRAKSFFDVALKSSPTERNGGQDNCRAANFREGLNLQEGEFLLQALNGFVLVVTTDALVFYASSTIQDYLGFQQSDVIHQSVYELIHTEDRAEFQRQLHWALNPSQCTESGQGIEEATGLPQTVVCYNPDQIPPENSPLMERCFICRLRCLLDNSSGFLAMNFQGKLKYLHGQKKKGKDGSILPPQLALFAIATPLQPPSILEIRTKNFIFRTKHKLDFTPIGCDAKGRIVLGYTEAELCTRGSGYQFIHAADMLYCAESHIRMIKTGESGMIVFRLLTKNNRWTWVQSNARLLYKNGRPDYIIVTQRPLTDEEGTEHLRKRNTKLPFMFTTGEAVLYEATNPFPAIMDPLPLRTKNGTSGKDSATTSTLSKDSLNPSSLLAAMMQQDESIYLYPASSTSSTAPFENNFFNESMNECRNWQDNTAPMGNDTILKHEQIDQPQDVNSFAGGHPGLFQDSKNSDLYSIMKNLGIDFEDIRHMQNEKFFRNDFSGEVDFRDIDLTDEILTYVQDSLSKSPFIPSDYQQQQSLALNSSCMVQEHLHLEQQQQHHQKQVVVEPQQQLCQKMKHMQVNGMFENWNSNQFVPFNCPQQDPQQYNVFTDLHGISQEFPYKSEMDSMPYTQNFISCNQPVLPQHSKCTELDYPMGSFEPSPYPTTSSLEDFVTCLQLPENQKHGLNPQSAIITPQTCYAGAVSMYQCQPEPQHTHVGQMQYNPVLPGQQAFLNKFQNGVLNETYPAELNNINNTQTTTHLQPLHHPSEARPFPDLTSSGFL

Sequence of Photoreceptor-specific nuclear receptor (Q9Y5X4 whole entry, the tested form may be a part): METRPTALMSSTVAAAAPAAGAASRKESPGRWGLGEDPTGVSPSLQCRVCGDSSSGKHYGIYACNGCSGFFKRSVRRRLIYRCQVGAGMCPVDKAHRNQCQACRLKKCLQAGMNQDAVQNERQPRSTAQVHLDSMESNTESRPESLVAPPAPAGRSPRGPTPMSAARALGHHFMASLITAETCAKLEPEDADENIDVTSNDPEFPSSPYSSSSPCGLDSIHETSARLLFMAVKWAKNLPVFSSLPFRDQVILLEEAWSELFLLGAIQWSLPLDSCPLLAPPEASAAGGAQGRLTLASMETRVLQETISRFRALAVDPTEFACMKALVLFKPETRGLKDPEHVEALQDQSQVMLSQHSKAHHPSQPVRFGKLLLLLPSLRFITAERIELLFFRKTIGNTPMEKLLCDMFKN

Cc1ccc(CN2CC(C(=O)Nc3ncc(C)s3)CC2=O)cc1 (stereo not given)
IC50 [1]: 1.26 µM (active)

Nn1c(SCC(=O)Nc2ccc3c(c2)OCCO3)nnc1-c1ccccn1
AC50 [2]: 107 µM (active)

COC(=O)N1C(=O)[C@@](c2ccc(OC)cc2)(C(C)C)N1C(=O)OC
IC50 (Interleukin-8 [3]): 3.22 µM (active)
IC50 (Interleukin-8 [4]): 2.4 µM (active)

O=C1CC(=C2c3ccccc3-c3ccccc32)C(=O)N1CCN1CCN(c2cccc(Cl)c2)CC1
IC50 [5]: 13.5 µM (active)
IC50 [6]: 26.6 µM (active)

O=C(CN1CCCc2ccccc21)NCCc1ccc(Cl)cc1
IC50 [7]: 8.54 µM (active)

C=CCn1c(SCc2c(C(=O)OC)sc(N)c2C(=O)OC)nnc1-c1ccc(Br)cc1
AC50 [8]: 0.233 µM (active)

O=c1c2cc([N+](=O)[O-])ccc2sn1-c1ccccc1
IC50 (Hexokinase): > 25 µM (inactive)
IC50 [9]: 11.3 µM (active)
IC50 (CHO): 12.1 µM (inactive)
IC50 (Beta Lactamase): > 49.7 µM (inactive)
EC50 [10]: > 104 µM (inactive)

CCc1cc(C(=O)OCC(=O)N2CCC(c3ccccc3)=N2)sc1C
IC50 (CHO-K1): > 66.2 µM (inactive)
IC50 [11]: > 49.8 µM (inactive)
IC50 [12]: 2.45 µM (active)
IC50 [13]: 3.47 µM (active)
IC50 (Orexin receptor type 2 [14]): > 88.8 µM (inactive)
IC50 (Orexin receptor type 2 [15]): > 50 µM (inactive)

Cc1c(C(=O)OC(C)C(=O)N(C)Cc2ccccc2)oc2ccccc12 (stereo not given)
IC50 (CHO-K1): > 66.2 µM (inactive)
IC50 [11]: 43.3 µM (inactive)
IC50 [12]: 0.717 µM (active)
IC50 [13]: 6.49 µM (active)
IC50 (Orexin receptor type 2 [14]): 9.6 µM (active)
IC50 (Orexin receptor type 2 [15]): 5.52 µM (active)

Cc1ccc(S(=O)(=O)N2CCN(C(=O)C3CCN(c4ncnc5sc(C)c(C)c45)CC3)CC2)c(C)c1
AC50 [16]: 2.12 µM (active)
AC50 [17]: 46 µM (active)
AC50 [18]: 1.43 µM (active)
IC50 (Protein Wnt-3a): 14.7 µM (active)

COc1ccccc1-c1cc(NC(C)=O)c2ncc(-c3ccccc3)n2c1
EC50 (Melanocortin receptor 4): > 89.2 µM (inactive)

O=C1CC(c2ccc(F)cc2)Cc2[nH]c3cc(Cl)ccc3c(=O)c21 (stereo not given)
Ki [19]: 3.98 µM (active)
Ki [20]: 3.98 µM (active)
Ki [21]: 6.31 µM (active)

Nc1nonc1-n1cc(CO)nn1
Ki [22]: 39.8 µM (active)
Ki [21]: 63.1 µM (active)

COCCN(CCOC)c1nc(OC)cc(-c2c[nH]c3ncccc23)n1
Ki [23]: 0.1 µM (active)
Ki [24]: > 2.51 µM (inactive)
Ki [25]: > 2.51 µM (inactive)

CCSCCO/C(O)=C1\C(C)=NC2=C(C(=O)CCC2)C1c1coc2ccccc2c1=O (stereo not given)
IC50 [26]: > 73.5 µM (inactive)

Nc1ccc(/N=N/c2ccccc2)cc1
AC50 [27]: 50.1 µM (inconclusive)
